From US20180172712A1, “METHODS AND MATERIALS FOR ASSESSING HYDROGEN PEROXIDE ACCUMULATION IN CELLS” (Mayo Foundation for Medical Education and Research, priority 2015, published 2018)
Where two headings read alike, the source gives them in different places. Each block holds one compound with its values, some of them ahead of it.

Tests used:
[1] = target: T1, Horseradish peroxidase (Armoracia rusticana, UniProt P00433); assay: HRP/Amplex Red in-vitro assay; assay type: biochemical; conditions: 10 μM drug, 5 μM H2O2, 30 minutes
T1 sequence (P00433 31-338 limits assumed): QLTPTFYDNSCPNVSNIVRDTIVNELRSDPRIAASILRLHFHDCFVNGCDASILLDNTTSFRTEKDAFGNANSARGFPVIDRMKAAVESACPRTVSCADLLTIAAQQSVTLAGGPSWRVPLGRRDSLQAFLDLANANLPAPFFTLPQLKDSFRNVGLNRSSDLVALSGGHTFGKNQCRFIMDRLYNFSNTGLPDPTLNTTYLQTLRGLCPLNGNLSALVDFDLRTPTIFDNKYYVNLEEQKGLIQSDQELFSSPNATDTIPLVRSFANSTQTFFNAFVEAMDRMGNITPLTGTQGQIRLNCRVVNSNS
Protocol: (§1) After 30 minutes, plates were read for fluorescence at 530 nm excitation and 590 nm emission with plate reader (Biotek Cytation3). For determining intra-cellular peroxidase activity by Amplex Red, cells were washed and mixed with Amplex Red reagent (50 μM) in HBSS buffer and plated 100,000 cells per well into 96 well plate, four wells for each condition. […] The DMSO control included H2O2 (100 μM). […] After specific time periods, the plates were read for fluorescence intensity using plate reader.

[2] = test system: intracellular peroxidases in HMCLs; assay: Intra-cellular peroxidase activity by Amplex Red in HMCLs; assay type: cell-based, human; conditions: for intracellular H2O2 decomposition mediated by peroxidases: different myeloma cell lines, thalidomide 20 μM, lenalidomide 20 μM, pomalidomide 10 μM, 40 to 60 minutes
Protocol: as §1

[3] = test system: Myeloma cell line harboring CRBN or without CRBN; assay: Cell survival of myeloma cell line harboring CRBN or without CRBN treated with cofactors; assay type: cell-based, human; conditions: cofactor alone
Excerpt: (§2) The data were normalized to the DMSO-treated group.

[4] = test system: OCIMY5-Vector and OCIMY-CRBN cells; assay: MTT assay in OCIMY5-Vector and OCIMY-CRBN cells; conditions: 72 hours
Protocol: Cell viability was assessed by 3-(4,5-dimethylthiazol-2-yl)-2,5-diphenyltetrazolium bromide (MTT) colorimetric assay. […] The data were normalized to the DMSO-treated group. Each experimental condition was performed in triplicate and repeated at least once. Thalidomide was obtained from Sigma, and pomalidomide was obtained from Selleckchem.
(§3) Human CRBN cDNA was obtained from Thermo Scientific and subcloned into a lentiviral expression vector, pCDH-CMV-MCS-EF1-copGFP (System Bioscience). Lentivirus harboring control vector and CRBN cDNA constructs were prepared and used to infect the multiple myeloma (MM) cell line OCIMY5. Infection efficiency was measured by FACScan analysis of GFP expression 3 days after infection. The cells were sorted for GFP expression 14 days after infection.

[5] = test system: RPMI-8226 myeloma cells; assay: Anti-oxidative capacity by FAD and NAD(P)H autofluorescence flow cytometry; assay type: cell-based, human; conditions: pre-treatment of myeloma cells, then external H2O2
Protocol: HMCLs cells (1 million cells/1 mL PBS) treated or not treated with 100 μM concentration of H2O2 were immediately analyzed for autofluoresnece of FAD (FITC-A channel) and NAD(P)H (UV Blue-A channel) with multicolor flow cytometry (BD LSRFORTESSA). Flowjo histogram normalization was used to overlay untreated versus treated samples.

[6] = test system: IKZF1 and IKZF3; assay: Western blot of IKZF1 and IKZF3 in MM.1S cells; assay type: cell-based, human; conditions: for IKZF1 and IKZF3 degradation: MM.1S cells, 3 hours (lenalidomide 10 μM, H2O2 100 μM, PX12 20 μM)
Excerpt: (§4) Proteins were transferred to polyvinylidene fluoride membranes (Bio-Rad).

[7] = test system: IKZF1 and IKZF3; assay: Western blot of IKZF1 and IKZF3 in OPM2 cells; assay type: cell-based, human; conditions: PX12 20 μM, within 3 hours
Excerpt: as §4

[8] = test system: myeloma cells; assay: MTT assay of dehydroascorbic acid in myeloma cells; assay type: cell-based, human; conditions: high concentrations
Excerpt: as §2

[9] = test system: PARP; assay: PARP cleavage immunoblot in OPM2-NT and OPM2-shCRBN cells; assay type: cell-based, human; conditions: OPM2 CRBN-positive cells; bortezomib 2.5 nM 2 days
Excerpt: as §4

[10] = test system: OPM2 cells; assay: Apoptosis assay (Annexin V/propidium iodide FACS) in OPM2 cells; assay type: cell-based, human; conditions: lenalidomide 10 μM pretreatment two days, bortezomib 2.5 nM 2 days
Protocol: Treated cells were harvested and stained for flow cytometry with Annexin V-fluorescein isothiocyanate and propidium iodide (BD Pharmingen). Stained cells were analyzed with a BD LSRII flow cytometer, and the data were analyzed with BD fluorescence-activated cell sorting (FACs) DIVA software.

[11] = test system: myeloma cell line harboring CRBN and myeloma cell line without CRBN; assay: Viability of myeloma cell lines with auranofin and bortezomib; assay type: cell-based, human; conditions: bortezomib in combination with auranofin
[12] = test system: myeloma cells; assay: Intracellular H2O2 accumulation in myeloma cells; assay type: cell-based, human
[13] = test system: thioredoxin reductase; assay: Thioredoxin reductase inhibition
[14] = test system: myeloma cells; assay: MTT assay of auranofin in myeloma cells; assay type: cell-based, human
Excerpt: as §2

[15] = test system: IgL-λ dimers; assay: IgL dimerization immunoblot under nonreducing conditions in MM.1S cells; assay type: cell-based, human; conditions: 3 hours, lenalidomide 10 μM or H2O2 25 μM
Excerpt: as §4

[16] = test system: MM.1S cells; assay: MTT assay in MM.1S cells; assay type: cell-based, human; conditions: 3 days
Excerpt: as §2

[17] = test system: RPMI-8226 cells; assay: MTT assay in RPMI-8226 cells; assay type: cell-based, human; conditions: RPMI-8226, 3 days
Excerpt: as §2

[18] = test system: IKZF1 and IKZF3; assay: Western blot of IKZF1 and IKZF3 in OCIMY-5 cells overexpressing CRBN; assay type: cell-based, human; conditions: lenalidomide 10 μM or H2O2 25 or 50 μM, within 3 hours
Protocol: as §4, §3

[19] = test system: IKZF1 and IKZF3; conditions: OPM2-NT vs OPM2-shCRBN; H2O2 25 or 50 μM, 3 hours
Excerpt: as §4

[20] = OCIMY5-Vector (CRBN deficient) cells
[21] = OCIMY-CRBN (CRBN positive) cells

decomposition of H2O2 by horseradish peroxidase (Amplex Red to resorufin) [1]: inhibited
intracellular H2O2 decomposition mediated by peroxidases [2]: inhibit intracellular H2O2 decomposition
Compound: Nc1cccc2c1C(=O)N(C1CCC(=O)NC1=O)C2=O (centres unmarked) [pomalidomide]
inhibition of intracellular peroxidases compared among IMIDs ([2]; FIG. 1C-E and FIG. 2A): more potentially than thalidomide and lenalidomide

Compound: NC(=O)c1ccc[n+]([C@@H]2O[C@H](COP(=O)([O-])OP(=O)(O)OC[C@H]3O[C@@H](n4cnc5c(N)ncnc54)[C@H](OP(=O)(O)O)[C@@H]3O)[C@@H](O)[C@H]2O)c1 [NADP]
cell survival [3]: induced cell death

Compound: O=C([O-])CC([S-])C(=O)[O-].[Au+].[Na+].[Na+] (centres unmarked) [ATM, sodium aurothiomalate]
cell proliferation (MTT) [4, 20]: did not inhibit cell proliferation
cell proliferation (MTT) [4, 21]: did not inhibit cell proliferation

Compound: NC(=O)CCCCC1CCSS1 (centres unmarked) [lopoamide]
anti-oxidative capacity (FADH2 and NAD(P)H oxidation) [5]: decreased myeloma cells anti-oxidative capacity

Compound: O=C(O)CCCC[C@@H]1CCSS1 [lipoic acid]
anti-oxidative capacity (FADH2 and NAD(P)H oxidation) [5]: decreased myeloma cells anti-oxidative capacity

decomposition of H2O2 by horseradish peroxidase (Amplex Red to resorufin) [1]: inhibited
intracellular H2O2 decomposition mediated by peroxidases [2]: inhibit intracellular H2O2 decomposition
Compound: O=C1CCC(N2C(=O)c3ccccc3C2=O)C(=O)N1 (centres unmarked) [thalidomide]

Compound: CCC(C)SSc1ncc[nH]1 (centres unmarked) [PX12, 1-methylpropyl 2-imidazolyl disulfide]
cell proliferation (MTT) [4, 20]: inhibited cell proliferation
cell proliferation (MTT) [4, 21]: inhibited cell proliferation
IKZF1 and IKZF3 degradation [6]: induced IKZF1 and IKZF3 degradation
IKZF1 and IKZF3 degradation [7]: induced IKZF1 and IKZF3 degradation

Compound: NC(=O)C1=CN([C@@H]2O[C@H](COP(=O)(O)OP(=O)(O)OC[C@H]3O[C@@H](n4cnc5c(N)ncnc54)[C@H](OP(=O)(O)O)[C@@H]3O)[C@@H](O)[C@H]2O)C=CC1 [NADPH]
cell survival [3]: induced cell death

Compound: O=C1O[C@H]([C@@H](O)CO)C(=O)C1=O [DHA, Dehydroascorbic acid]
myeloma cell proliferation (MTT) [8]: inhibited myeloma cell proliferation

Compound: CC(C)C[C@H](NC(=O)[C@H](Cc1ccccc1)NC(=O)c1cnccn1)B(O)O [bortezomib]
bortezomib-induced PARP cleavage after lenalidomide pretreatment [9]: enhanced
bortezomib-induced apoptosis in cells pretreated with lenalidomide vs not pretreated [10]: increased sensitivity
interaction with auranofin (percent viability) [11]: synergy

Compound: CC(=O)OC[C@H]1O[C@@H]([S-])[C@H](OC(C)=O)[C@@H](OC(C)=O)[C@@H]1OC(C)=O.CCP(CC)CC.[Au+] [auranofin]
intracellular H2O2 accumulation [12]: effective at accumulating intracellular H2O2
potency in inhibiting thioredoxin reductase, compared with lenalidomide [13]: more potent than lenalidomide
CRBN dependence of inhibition of cancer cell proliferation [14]: irrespective of CRBN level
potency in inhibiting cancer cell proliferation, compared with lenalidomide [14]: more potent than lenalidomide
cancer cell viability (MTT) ([14]; myeloma cells): reducing cancer cell viability

Compound: OO [H2O2, hydrogen peroxide]
formation of IgL-λ dimers [15]: increased formation of IgL-λ dimers
sensitivity of cell line (MTT) [16]: hypersensitive
sensitivity of cell line (MTT) [17]: resistant
IKZF1 and IKZF3 degradation [6]: degraded IKZF1 and IKZF3 most effectively
IKZF1 degradation ([6]; MM.1S, 3 hours of treatment): prominent
time of peak IKZF1 dimerization after treatment ([6]; MM.1S, exogenous H2O2 50 μM): 60 min
IKZF1 dimerization ([6]; MM.1S, nonreducing conditions, lenalidomide 10 μM or exogenous H2O2 50 μM): induced IKZF1 dimerization
IKZF1 and IKZF3 degradation [18]: enhanced IKZF1 and IKZF3 degradation
IKZF1 and IKZF3 degradation [19]: in a CRBN-dependent fashion

Compound: NC(=O)C1=CN([C@@H]2O[C@H](COP(=O)(O)OP(=O)(O)OC[C@H]3O[C@@H](n4cnc5c(N)ncnc54)[C@H](O)[C@@H]3O)[C@@H](O)[C@H]2O)C=CC1 [NADH]
cell survival [3]: induced cell death

Compound: NC(=O)c1ccc[n+]([C@@H]2O[C@H](COP(=O)([O-])OP(=O)(O)OC[C@H]3O[C@@H](n4cnc5c(N)ncnc54)[C@H](O)[C@@H]3O)[C@@H](O)[C@H]2O)c1 [NAD]
cell survival [3]: induced cell death
